Like-named read-outs stand apart in the source and are kept apart here.
Key:
[1] = MTT cytotoxicity assay, HEK293 control cells; type: cell-based, human; conditions: human, HEK293 cells; 50 µM, 72 h, MTT;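 note: Read-out is formazan absorbance at 570 nm from MTT reduction in 96-well plates, with three independent biological replicates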
[2] = test system: HT29; experiment: MTT cytotoxicity assay, HT29; type: cell-based; conditions: Homo sapiens; for cytotoxicity at 50 µM: read-out: % Cytotoxicity (50 µM) HT29; for IC50: 0.05–50 µM
Description: (§1) Cytotoxicity assays were performed by using the MTT reduction method as described previously. Briefly, cancer cell lines were plated in flat-bottom 96-well plates at a cell concentration of 5 × 10^3 cells/well for the fastest growing lines, such as HEK293 and HT29 cells and 1 × 10^4 cells/well for more slowly growing lines, such as HCT116, H1975, BxPC-3, AsPC-1, B16-F10 and DAOY. Then, cells were incubated with the synthesised compounds at different concentrations (from 0.05 to 50 µM) in 200 µL with 10% FBS in RPMI 1640 or DMEM F12 culture medium at 37 °C for 72 h. Later, 10 µL of MTT were added at a final concentration of 0.5 mg/mL, incubated at 37 °C for 4 h, and then solubilised with 10% sodium dodecyl sulphate (SDS) in 0.1 mM HCl and incubated overnight at 37 °C. Formazan formation was measured at 570 nm in a multiwell plate reader (Cytation 5, Biotek Instruments, Winooski, VT, USA). Three independent biological replicates were performed.

[3] = test system: Daoy; experiment: MTT cytotoxicity assay, Daoy; type: cell-based, human; conditions: 72 h; for cytotoxicity at 50 µM: read-out: % Cytotoxicity (50 µM) DAOY; for IC50: 0.05–50 µM;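 for all read-outs here: viability read as formazan absorbance at 570 nm after MTT reduction, three independent biological replicates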
[4] = test system: H1975; experiment: MTT cytotoxicity assay, H1975; type: cell-based; conditions: Homo sapiens; for cytotoxicity at 50 µM: read-out: % Cytotoxicity (50 µM) H1975; for IC50: 0.05–50 µM
Description: as §1

[5] = test system: HCT116; experiment: MTT cytotoxicity assay, HCT116; type: cell-based; conditions: Homo sapiens; for cytotoxicity at 50 µM: read-out: % Cytotoxicity (50 µM) HCT116; for IC50: 0.05–50 µM
Description: as §1

[6] = test system: HEK293; experiment: MTT cytotoxicity assay, HEK293 control cells; type: cell-based, human; conditions: MTT, 72 h, non-cancer cell line;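 note: Read-out is formazan absorbance at 570 nm from MTT reduction in 96-well plates, with three independent biological replicates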
[7] = test system: AsPC-1; experiment: MTT cytotoxicity assay, AsPC-1; type: cell-based; conditions: Homo sapiens, ASPC1, 72 h, 0.05–50 µM
Description: as §1

[8] = test system: BxPC-3; experiment: MTT cytotoxicity assay, BxPC-3; type: cell-based; conditions: Homo sapiens, 72 h, 0.05–50 µM
Description: as §1

Row | melting point [°C] | SMILES | cytotoxicity at 72 h, 50 µM [1] [%] | cytotoxicity at 50 µM ([2]; HT-29, 50 µM, 72 h, MTT) [%] | cytotoxicity at 50 µM ([3]; Homo sapiens, Daoy, 50 µM, MTT) [%] | cytotoxicity at 50 µM ([4]; NCI-H1975, 50 µM, 72 h, MTT) [%] | cytotoxicity at 50 µM ([5]; HCT-116, 50 µM, 72 h, MTT) [%] | IC50 ([6]; Homo sapiens, HEK293) [µM] | further results
1 | – | CCCCn1cnc2c(-c3ccc(OC(F)(F)F)cc3)nc(NC3CCCCC3)nc21 [Compound 4d, 9-Butyl-N-cyclohexyl-6-(4-(trifluoromethoxy)phenyl)-9H-purin-2-amine] | < 50 | < 50 | < 50 | < 50 | < 50 | – | –
2 | – | COc1cc([C@@H]2c3cc4c(cc3[C@@H](O[C@@H]3O[C@@H]5CO[C@@H](C)O[C@H]5[C@H](O)[C@H]3O)[C@H]3COC(=O)[C@H]23)OCO4)cc(OC)c1O [Etoposide, reference compound] | 65 ± 0.7 | – | – | 60 ± 1.1 | 90 ± 0.5 | 8.4 ± 0.7 | IC50 ([4]; NCI-H1975, MTT, 72 h): 40 ± 0.2 µM; IC50 ([5]; HCT-116, MTT, 72 h): 9.8 ± 0.5 µM
3 | 99 to 101 | CCCCCCn1cnc2c(-c3ccc(OC(F)(F)F)cc3)nc(N3CCN(c4ccccc4)CC3)nc21 [Compound 4k, 9-Hexyl-2-(4-phenylpiperazin-1-yl)-6-(4-(trifluoromethoxy)phenyl)-9H-purine] | < 50 | < 50 | < 50 | < 50 | < 50 | – | –
4 | 144 to 145 | CCCCCCn1cnc2c(-c3ccc(OC(F)(F)F)cc3)nc(N3CCN(c4ccc(OC)cc4)CC3)nc21 [Compound 4q, 9-Hexyl-2-(4-(4-methoxyphenyl)piperazin-1-yl)-6-(4-(trifluoromethoxy)phenyl)-9H-purine] | < 50 | < 50 | < 50 | < 50 | < 50 | – | –
5 | – | CCCCCn1cnc2c(-c3ccc(OC(F)(F)F)cc3)nc(N3CCN(c4ccccc4)CC3)nc21 [Compound 4j, 9-Pentyl-2-(4-phenylpiperazin-1-yl)-6-(4-(trifluoromethoxy)phenyl)-9H-purine] | < 50 | < 50 | < 50 | < 50 | < 50 | – | –
6 | – | CCCCCCn1cnc2c(-c3ccc(OC(F)(F)F)cc3)nc(NCC3CCCCC3)nc21 [Compound 4i, N-(cyclohexylmethyl)-9-hexyl-6-(4-(trifluoromethoxy)phenyl)-9H-purin-2-amine] | < 50 | < 50 | < 50 | < 50 | < 50 | – | –
7 | 180 to 181 | CCCCCn1cnc2c(-c3ccc(OC(F)(F)F)cc3)nc(N3CCN(c4ccc([N+](=O)[O-])cc4)CC3)nc21 [Compound 4n, 9-Pentyl-2-(4-(4-nitrophenyl)piperazin-1-yl)-6-(4-(trifluoromethoxy)phenyl)-9H-purine] | < 50 | < 50 | < 50 | < 50 | < 50 | – | –
8 | 93 to 95 | CCCCn1cnc2c(-c3ccc(OC(F)(F)F)cc3)nc(NC3CCCC3)nc21 [Compound 4a, 9-Butyl-N-cyclopentyl-6-(4-(trifluoromethoxy)phenyl)-9H-purin-2-amine] | < 50 | < 50 | 82 ± 6.2 | 66 ± 0.9 | 68 ± 0.3 | > 50 | IC50 ([2]; HT-29, MTT, 72 h): > 50 µM; IC50 [7]: 20.1 ± 0.3 µM; IC50 ([3]; Homo sapiens, Daoy, MTT): 18 ± 0.2 µM; IC50 ([4]; NCI-H1975, MTT, 72 h): 34 ± 0.9 µM; IC50 [8]: > 50 µM; IC50 ([5]; HCT-116, MTT, 72 h): 32 ± 0.3 µM
9 | – | N.N.[Cl][Pt][Cl] [Cisplatin, reference compound] | – | – | – | – | – | – | IC50 [6]: 12 ± 1.4 µM; IC50 ([3]; MTT): 12 ± 0.7 µM
10 | 126 to 128 | CCCCCCn1cnc2c(-c3ccc(OC(F)(F)F)cc3)nc(N3CCN(c4ccc(Cl)cc4)CC3)nc21 [Compound 4m, 2-(4-(4-Chlorophenyl)piperazin-1-yl)-9-hexyl-6-(4-(trifluoromethoxy)phenyl)-9H-purine] | < 50 | < 50 | < 50 | < 50 | < 50 | – | –
11 | 84 to 86 | CCCCCCn1cnc2c(-c3ccc(OC(F)(F)F)cc3)nc(NC3CCCCC3)nc21 [Compound 4f, N-cyclohexyl-9-hexyl-6-(4-(trifluoromethoxy)phenyl)-9H-purin-2-amine] | < 50 | < 50 | < 50 | < 50 | < 50 | – | –
12 | 142 to 144 | CCCCCCn1cnc2c(-c3ccc(OC(F)(F)F)cc3)nc(N3CCN(c4ccc([N+](=O)[O-])cc4)CC3)nc21 [Compound 4o, 9-Hexyl-2-(4-(4-nitrophenyl)piperazin-1-yl)-6-(4-(trifluoromethoxy)phenyl)-9H-purine] | < 50 | < 50 | < 50 | < 50 | < 50 | – | –
13 | – | O=c1[nH]cc(F)c(=O)[nH]1 [Compound 5-FU, 5-fluorouracil, reference compound] | < 50 | 66 ± 4.9 | – | – | 62 ± 1.3 | 0.83 ± 0.07 | IC50 ([2]; HT-29, MTT, 72 h): 0.51 ± 0.06 µM; IC50 ([5]; HCT-116, MTT, 72 h): 31 ± 0.3 µM
14 | – | Nc1ccn([C@@H]2O[C@H](CO)[C@@H](O)C2(F)F)c(=O)n1 [Gemcitabine, reference compound] | – | – | – | – | – | 7.5 ± 0.6 | IC50 [7]: 0.3 ± 0.09 µM; IC50 [8]: 0.2 ± 0.07 µM
15 | 88 to 89 | CCCCn1cnc2c(-c3ccc(OC(F)(F)F)cc3)nc(NCC3CCCCC3)nc21 [Compound 4g, 9-Butyl-N-(cyclohexylmethyl)-6-(4-(trifluoromethoxy)phenyl)-9H-purin-2-amine] | < 50 | < 50 | < 50 | < 50 | < 50 | – | –
16 | – | CCCCCn1cnc2c(-c3ccc(OC(F)(F)F)cc3)nc(NC3CCCC3)nc21 [Compound 4b, N-cyclopentyl-9-pentyl-6-(4-(trifluoromethoxy)phenyl)-9H-purin-2-amine] | < 50 | – | – | – | – | > 50 | cytotoxicity at 50 µM ([2]; HT-29, 72 h): < 50%; IC50 ([2]; HT-29, MTT, 72 h): > 50 µM; IC50 [7]: 23.2 ± 0.2 µM; IC50 ([3]; Homo sapiens, Daoy, MTT): > 50 µM; cytotoxicity at 50 µM ([3]; Homo sapiens, Daoy): 94 ± 0.4%; cytotoxicity at 50 µM ([4]; NCI-H1975, 72 h): 30 ± 1%; IC50 ([4]; NCI-H1975, MTT, 72 h): 30 ± 1 µM; IC50 [8]: > 50 µM; cytotoxicity at 50 µM ([5]; HCT-116, 72 h): 53 ± 0.9%; IC50 ([5]; HCT-116, MTT, 72 h): 47 ± 0.9 µM

Row | SMILES | melting point [°C] | cytotoxicity at 72 h, 50 µM [1] [%] | cytotoxicity at 50 µM ([2]; HT-29, 50 µM, 72 h, MTT) [%] | cytotoxicity at 50 µM ([3]; Homo sapiens, Daoy, 50 µM, MTT) [%] | cytotoxicity at 50 µM ([4]; NCI-H1975, 50 µM, 72 h, MTT) [%] | cytotoxicity at 50 µM ([5]; HCT-116, 50 µM, 72 h, MTT) [%] | IC50 ([6]; Homo sapiens, HEK293) [µM] | further results
17 | CCCCCCn1cnc2c(-c3ccc(OC(F)(F)F)cc3)nc(NC3CCCC3)nc21 [Compound 4c, N-cyclopentyl-9-hexyl-6-(4-(trifluoromethoxy)phenyl)-9H-purin-2-amine] | 58 to 60 | < 50 | – | – | – | – | > 50 | cytotoxicity at 50 µM ([2]; HT-29, 72 h): < 50%; IC50 ([2]; HT-29, MTT, 72 h): > 50 µM; IC50 [7]: > 50 µM; IC50 ([3]; Homo sapiens, Daoy, MTT): 31 ± 0.9 µM; cytotoxicity at 50 µM ([3]; Homo sapiens, Daoy): 69 ± 0.9%; cytotoxicity at 50 µM ([4]; NCI-H1975, 72 h): 19 ± 0.8%; IC50 ([4]; NCI-H1975, MTT, 72 h): 19 ± 0.8 µM; IC50 [8]: > 50 µM; cytotoxicity at 50 µM ([5]; HCT-116, 72 h): < 50%; IC50 ([5]; HCT-116, MTT, 72 h): > 50 µM
18 | CCCCCn1cnc2c(-c3ccc(OC(F)(F)F)cc3)nc(N3CCN(c4ccc(Cl)cc4)CC3)nc21 [Compound 4l, 9-Pentyl-2-(4-(4-clorophenyl)piperazin-1-yl)-6-(4-(trifluoromethoxy)phenyl)-9H-purine] | 147 to 149 | < 50 | < 50 | < 50 | < 50 | < 50 | – | –
19 | CCCCCn1cnc2c(-c3ccc(OC(F)(F)F)cc3)nc(N3CCN(c4ccc(OC)cc4)CC3)nc21 [Compound 4p, 9-Pentyl-2-(4-(4-methoxyphenyl)piperazin-1-yl)-6-(4-(trifluoromethoxy)phenyl)-9H-purine] | 118 to 120 | < 50 | < 50 | < 50 | < 50 | < 50 | – | –
